Assay results taken from patent US11939354B1, “Fusion peptide inhibitors of human coronavirus 229E” (KING FAISAL UNIVERSITY, priority 2023, dated 2024).
Ends that are not written are not given here.

Columns and labels:
[1] = Cytotoxicity (CC50) of tested peptides; settings: African green monkey, Vero E6 cells
HCoV-229E = settings: 24 h
[2] = molecular target: HCoV-229E spike (S) protein (human coronavirus 229E, UniProt P15423); assay: cell-based or functional assay

Molecule: CC[C@H](C)[C@H](NC(=O)CNC(=O)[C@H](CO)NC(=O)[C@@H](NC(=O)[C@H](CC(=O)O)NC(=O)CNC(=O)[C@H](CC(C)C)NC(=O)[C@@H](NC(=O)[C@@H](N)Cc1c[nH]cn1)C(C)C)[C@@H](C)CC)C(=O)N[C@@H](CC(N)=O)C(=O)N[C@@H](C)C(=O)N[C@@H](CO)C(=O)N[C@H](C(=O)N[C@H](C(=O)N[C@@H](CCC(N)=O)C(=O)N[C@H](C(=O)N[C@@H](CCC(N)=O)C(=O)N[C@@H](CCCCN)C(=O)N[C@@H](CCC(=O)O)C(=O)N[C@H](C(=O)N[C@@H](CC(=O)O)C(=O)N[C@@H](CCCNC(=N)N)C(=O)N[C@@H](CC(C)C)C(=O)N[C@@H](CC(N)=O)C(=O)N[C@@H](CCC(=O)O)C(=O)N[C@H](C(=O)N[C@@H](C)C(=O)N[C@@H](CCCCN)C(=O)N[C@@H](CC(N)=O)C(=O)N[C@@H](CC(C)C)C(=O)N[C@@H](Cc1c[nH]cn1)C(=O)N[C@@H](CCC(=O)O)C(=O)N[C@@H](CO)C(=O)N[C@@H](CC(C)C)C(=O)N[C@H](C(=O)N[C@@H](Cc1ccc(O)cc1)C(=O)N[C@@H](CC(C)C)C(=O)N[C@@H](CCC(N)=O)C(=O)N[C@@H](CCC(=O)O)C(=O)O)[C@@H](C)CC)C(C)C)[C@@H](C)CC)[C@@H](C)CC)C(C)C)C(C)C [Peptide 121]
- CC50 [1]: 251 µM
- IC50 (HCoV-229E): 14.2 µM
- Selectivity Index (HCoV-229E): 13.06

Molecule: HRLRQIRGIRARVVQIQKEIWRLNEVAKLLNESLIYLQE [Peptide 125]
- CC50 [1]: 255 µM
- IC50 (HCoV-229E): 14.5 µM
- Selectivity Index (HCoV-229E): 17.56

Molecule: HVLGDISGINASVVQIQKEIDRLNEVAKNLHESLIYLQE [Peptide 121]
- IC50, plaque reduction test against HCoV-229E [2]: 14.2 µM

Molecule: HRLRQIRGIRARVVQIQKEIWRLNEVAKLLNESLIYLQE [Peptide 125]
- IC50, plaque reduction test against HCoV-229E [2]: 14.5 µM
